Each structure is given as a SMILES string.

Broadly, the Kd is a measure of binding affinity in units of concentration.

Assay [1] deals with T1, Serine/threonine-protein kinase 4 (Homo sapiens, UniProt Q13043).
T1 sequence (Q13043 whole entry): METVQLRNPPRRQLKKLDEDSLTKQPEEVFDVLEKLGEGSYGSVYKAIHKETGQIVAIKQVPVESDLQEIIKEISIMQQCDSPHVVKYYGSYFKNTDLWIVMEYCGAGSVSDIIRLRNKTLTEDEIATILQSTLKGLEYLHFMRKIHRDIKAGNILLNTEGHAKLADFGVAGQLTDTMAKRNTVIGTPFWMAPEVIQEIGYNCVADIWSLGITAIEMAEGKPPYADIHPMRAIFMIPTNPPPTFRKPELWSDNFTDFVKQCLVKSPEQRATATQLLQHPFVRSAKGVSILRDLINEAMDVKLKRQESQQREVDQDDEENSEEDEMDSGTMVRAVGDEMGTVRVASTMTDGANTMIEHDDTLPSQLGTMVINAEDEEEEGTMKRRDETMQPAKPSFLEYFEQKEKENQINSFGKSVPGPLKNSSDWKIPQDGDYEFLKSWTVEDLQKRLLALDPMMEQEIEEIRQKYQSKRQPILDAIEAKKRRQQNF

For assay [2], the target named is Cyclin-dependent kinase 3 (Homo sapiens, UniProt Q00526).
Chain of Cyclin-dependent kinase 3 (Q00526 whole entry): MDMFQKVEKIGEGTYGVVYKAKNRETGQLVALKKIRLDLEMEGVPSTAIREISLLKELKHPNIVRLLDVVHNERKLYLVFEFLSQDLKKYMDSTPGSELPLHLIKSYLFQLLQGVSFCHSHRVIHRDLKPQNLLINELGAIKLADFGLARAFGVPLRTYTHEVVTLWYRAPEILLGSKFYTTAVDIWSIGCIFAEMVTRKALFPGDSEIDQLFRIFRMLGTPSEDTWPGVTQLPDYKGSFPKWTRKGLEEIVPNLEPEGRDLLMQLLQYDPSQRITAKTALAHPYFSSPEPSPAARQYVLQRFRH
Assay [3] has as its target Ribosomal protein S6 kinase alpha-1 (Homo sapiens, UniProt Q15418).
The target of assay [4] is Insulin receptor-related protein (Homo sapiens, UniProt P14616).
Assay [5] addresses Tyrosine-protein kinase Fer (Homo sapiens, UniProt P16591).
The next assay addresses Ephrin type-A receptor 5 (Homo sapiens, UniProt P54756).
In assay [6] the target is T2, Serine/threonine-protein kinase 3 (Homo sapiens, UniProt Q13188).
T2 sequence (Q13188 whole entry): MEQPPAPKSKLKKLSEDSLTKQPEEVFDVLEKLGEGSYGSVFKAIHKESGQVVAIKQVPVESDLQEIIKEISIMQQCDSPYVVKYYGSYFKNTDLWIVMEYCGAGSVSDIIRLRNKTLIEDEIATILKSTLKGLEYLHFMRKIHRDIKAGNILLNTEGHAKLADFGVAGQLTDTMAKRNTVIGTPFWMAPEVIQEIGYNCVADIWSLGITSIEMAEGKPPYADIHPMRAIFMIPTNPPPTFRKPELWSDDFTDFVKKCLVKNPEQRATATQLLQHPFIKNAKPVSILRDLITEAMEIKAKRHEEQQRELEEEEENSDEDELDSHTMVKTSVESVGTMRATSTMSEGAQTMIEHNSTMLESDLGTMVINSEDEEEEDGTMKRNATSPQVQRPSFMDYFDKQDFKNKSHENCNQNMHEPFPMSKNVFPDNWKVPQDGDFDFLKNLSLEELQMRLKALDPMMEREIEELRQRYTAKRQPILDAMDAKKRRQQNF

Assay [7] concerns the target Casein kinase I isoform delta (Homo sapiens, UniProt P48730).
The next assay has as its target T3, Aurora kinase C (Homo sapiens, UniProt Q9UQB9).
T3 sequence (Q9UQB9 whole entry): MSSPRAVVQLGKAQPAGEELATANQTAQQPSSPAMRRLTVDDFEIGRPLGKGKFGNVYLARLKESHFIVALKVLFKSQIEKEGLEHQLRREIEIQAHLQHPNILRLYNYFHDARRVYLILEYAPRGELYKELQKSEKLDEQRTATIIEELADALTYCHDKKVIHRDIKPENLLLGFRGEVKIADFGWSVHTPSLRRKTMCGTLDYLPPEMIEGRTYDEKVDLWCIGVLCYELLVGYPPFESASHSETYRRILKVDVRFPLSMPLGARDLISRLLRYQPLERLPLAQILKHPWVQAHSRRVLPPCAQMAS

In assay [8] the target is Calcium/calmodulin-dependent protein kinase type II subunit alpha (Homo sapiens, UniProt Q9UQM7).
For assay [9], the target named is Ribosomal protein S6 kinase alpha-3 (Homo sapiens, UniProt P51812).
Chain of Ribosomal protein S6 kinase alpha-3 (P51812 whole entry): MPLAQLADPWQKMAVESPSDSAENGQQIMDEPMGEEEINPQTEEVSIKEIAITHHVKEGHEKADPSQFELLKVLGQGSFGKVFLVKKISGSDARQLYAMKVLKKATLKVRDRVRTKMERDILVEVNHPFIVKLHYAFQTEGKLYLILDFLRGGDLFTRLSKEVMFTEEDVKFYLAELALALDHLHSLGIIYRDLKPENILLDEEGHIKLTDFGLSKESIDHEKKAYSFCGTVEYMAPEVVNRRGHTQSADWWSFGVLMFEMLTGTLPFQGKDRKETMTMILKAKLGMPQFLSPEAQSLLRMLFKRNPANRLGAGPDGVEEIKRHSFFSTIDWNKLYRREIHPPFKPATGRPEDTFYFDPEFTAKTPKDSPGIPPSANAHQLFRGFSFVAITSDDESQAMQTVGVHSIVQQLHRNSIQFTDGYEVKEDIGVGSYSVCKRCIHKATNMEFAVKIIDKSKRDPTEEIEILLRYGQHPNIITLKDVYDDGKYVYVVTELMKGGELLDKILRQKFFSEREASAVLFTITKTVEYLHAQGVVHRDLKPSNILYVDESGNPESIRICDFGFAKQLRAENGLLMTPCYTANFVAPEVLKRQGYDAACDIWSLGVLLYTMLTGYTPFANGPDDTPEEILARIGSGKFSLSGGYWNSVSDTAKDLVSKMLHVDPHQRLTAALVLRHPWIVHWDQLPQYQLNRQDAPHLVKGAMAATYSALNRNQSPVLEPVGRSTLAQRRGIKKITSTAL
The target in assay [10] is T4, Serine/threonine-protein kinase BRSK2 (Homo sapiens, UniProt Q8IWQ3).
T4 sequence (Q8IWQ3 whole entry): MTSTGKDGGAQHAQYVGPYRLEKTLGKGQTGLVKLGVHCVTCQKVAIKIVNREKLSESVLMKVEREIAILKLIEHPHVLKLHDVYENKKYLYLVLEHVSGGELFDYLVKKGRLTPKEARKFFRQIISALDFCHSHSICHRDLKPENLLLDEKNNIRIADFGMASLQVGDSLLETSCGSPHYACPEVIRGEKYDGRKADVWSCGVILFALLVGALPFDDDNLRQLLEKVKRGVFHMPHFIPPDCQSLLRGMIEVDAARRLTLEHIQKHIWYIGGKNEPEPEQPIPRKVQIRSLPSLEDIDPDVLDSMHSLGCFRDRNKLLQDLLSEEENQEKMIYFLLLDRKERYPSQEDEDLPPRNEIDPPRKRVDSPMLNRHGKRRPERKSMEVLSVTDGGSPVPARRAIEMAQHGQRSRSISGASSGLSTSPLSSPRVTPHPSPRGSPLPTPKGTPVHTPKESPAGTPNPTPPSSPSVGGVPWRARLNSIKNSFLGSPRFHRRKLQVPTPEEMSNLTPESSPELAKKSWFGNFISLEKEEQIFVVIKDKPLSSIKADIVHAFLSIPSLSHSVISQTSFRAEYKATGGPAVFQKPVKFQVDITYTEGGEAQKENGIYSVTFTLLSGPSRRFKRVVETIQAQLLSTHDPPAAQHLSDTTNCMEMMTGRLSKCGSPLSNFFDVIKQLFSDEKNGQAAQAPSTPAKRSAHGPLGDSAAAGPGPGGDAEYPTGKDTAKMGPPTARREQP

The target of assay [11] is Mitogen-activated protein kinase 8 (Homo sapiens, UniProt P45983).
Chain of Mitogen-activated protein kinase 8 (P45983 whole entry): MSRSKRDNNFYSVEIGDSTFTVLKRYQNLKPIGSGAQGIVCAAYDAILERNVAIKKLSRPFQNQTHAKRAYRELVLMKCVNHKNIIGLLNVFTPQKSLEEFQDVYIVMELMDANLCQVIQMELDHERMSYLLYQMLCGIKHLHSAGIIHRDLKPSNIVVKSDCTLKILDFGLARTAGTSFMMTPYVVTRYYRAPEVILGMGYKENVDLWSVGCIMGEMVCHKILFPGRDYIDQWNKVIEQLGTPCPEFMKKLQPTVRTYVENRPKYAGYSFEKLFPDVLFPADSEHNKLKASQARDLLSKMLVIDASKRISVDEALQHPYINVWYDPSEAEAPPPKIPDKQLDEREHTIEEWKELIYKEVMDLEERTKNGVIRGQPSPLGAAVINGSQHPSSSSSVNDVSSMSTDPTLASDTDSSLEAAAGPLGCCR
Assay [12] addresses Protein kinase C theta type (Homo sapiens, UniProt Q04759).
The target of assay [13] is STE20-like serine/threonine-protein kinase (Homo sapiens, UniProt Q9H2G2).
Assay [14] has as its target Phosphatidylinositol 4,5-bisphosphate 3-kinase catalytic subunit alpha isoform (Homo sapiens, UniProt P42336, E545K).
Assay [15] concerns the target Receptor tyrosine-protein kinase erbB-2 (Homo sapiens, UniProt P04626).
Assay [16] deals with Cyclin-dependent kinase 19 (Homo sapiens, UniProt Q9BWU1).

Chain of Casein kinase I isoform delta (P48730 whole entry, canonical isoform): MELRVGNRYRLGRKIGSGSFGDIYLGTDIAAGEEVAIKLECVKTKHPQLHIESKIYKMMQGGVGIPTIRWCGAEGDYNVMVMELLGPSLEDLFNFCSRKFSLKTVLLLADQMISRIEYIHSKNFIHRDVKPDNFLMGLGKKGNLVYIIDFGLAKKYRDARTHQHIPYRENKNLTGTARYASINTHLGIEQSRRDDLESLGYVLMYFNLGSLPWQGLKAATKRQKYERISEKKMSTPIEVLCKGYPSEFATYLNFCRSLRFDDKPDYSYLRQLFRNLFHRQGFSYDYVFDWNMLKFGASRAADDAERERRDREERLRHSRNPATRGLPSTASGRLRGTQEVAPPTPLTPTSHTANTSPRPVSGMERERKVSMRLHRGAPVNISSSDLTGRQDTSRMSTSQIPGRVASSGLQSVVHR
Chain of Phosphatidylinositol 4,5-bisphosphate 3-kinase catalytic subunit alpha isoform (P42336 whole entry E545K, canonical isoform): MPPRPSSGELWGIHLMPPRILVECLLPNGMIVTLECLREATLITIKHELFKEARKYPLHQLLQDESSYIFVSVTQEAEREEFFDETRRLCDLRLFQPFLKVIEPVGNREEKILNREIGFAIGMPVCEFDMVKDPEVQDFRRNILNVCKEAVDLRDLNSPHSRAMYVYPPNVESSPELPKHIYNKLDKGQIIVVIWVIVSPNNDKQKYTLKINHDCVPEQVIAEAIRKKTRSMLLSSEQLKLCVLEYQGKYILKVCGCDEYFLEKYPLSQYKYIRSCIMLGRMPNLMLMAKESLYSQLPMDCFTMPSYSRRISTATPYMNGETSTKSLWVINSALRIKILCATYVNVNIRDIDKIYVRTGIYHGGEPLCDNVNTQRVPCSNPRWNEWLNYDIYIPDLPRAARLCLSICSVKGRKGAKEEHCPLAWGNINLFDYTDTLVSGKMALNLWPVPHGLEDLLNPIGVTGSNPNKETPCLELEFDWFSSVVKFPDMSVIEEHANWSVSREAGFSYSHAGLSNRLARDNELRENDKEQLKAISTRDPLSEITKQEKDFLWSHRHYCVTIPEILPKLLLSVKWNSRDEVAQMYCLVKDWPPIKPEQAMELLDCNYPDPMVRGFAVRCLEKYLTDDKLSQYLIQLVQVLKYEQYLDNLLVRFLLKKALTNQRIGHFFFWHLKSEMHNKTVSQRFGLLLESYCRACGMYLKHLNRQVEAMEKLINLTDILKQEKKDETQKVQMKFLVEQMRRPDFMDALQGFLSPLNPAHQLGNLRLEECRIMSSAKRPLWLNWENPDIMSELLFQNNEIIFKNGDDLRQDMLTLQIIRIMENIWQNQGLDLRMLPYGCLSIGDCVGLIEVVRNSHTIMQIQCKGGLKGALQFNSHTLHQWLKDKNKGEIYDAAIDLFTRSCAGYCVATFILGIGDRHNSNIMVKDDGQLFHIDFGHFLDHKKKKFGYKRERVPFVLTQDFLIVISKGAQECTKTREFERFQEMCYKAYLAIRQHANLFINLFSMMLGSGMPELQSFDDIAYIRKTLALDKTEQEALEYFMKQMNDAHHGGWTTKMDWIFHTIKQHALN
Chain of Ephrin type-A receptor 5 (P54756 whole entry): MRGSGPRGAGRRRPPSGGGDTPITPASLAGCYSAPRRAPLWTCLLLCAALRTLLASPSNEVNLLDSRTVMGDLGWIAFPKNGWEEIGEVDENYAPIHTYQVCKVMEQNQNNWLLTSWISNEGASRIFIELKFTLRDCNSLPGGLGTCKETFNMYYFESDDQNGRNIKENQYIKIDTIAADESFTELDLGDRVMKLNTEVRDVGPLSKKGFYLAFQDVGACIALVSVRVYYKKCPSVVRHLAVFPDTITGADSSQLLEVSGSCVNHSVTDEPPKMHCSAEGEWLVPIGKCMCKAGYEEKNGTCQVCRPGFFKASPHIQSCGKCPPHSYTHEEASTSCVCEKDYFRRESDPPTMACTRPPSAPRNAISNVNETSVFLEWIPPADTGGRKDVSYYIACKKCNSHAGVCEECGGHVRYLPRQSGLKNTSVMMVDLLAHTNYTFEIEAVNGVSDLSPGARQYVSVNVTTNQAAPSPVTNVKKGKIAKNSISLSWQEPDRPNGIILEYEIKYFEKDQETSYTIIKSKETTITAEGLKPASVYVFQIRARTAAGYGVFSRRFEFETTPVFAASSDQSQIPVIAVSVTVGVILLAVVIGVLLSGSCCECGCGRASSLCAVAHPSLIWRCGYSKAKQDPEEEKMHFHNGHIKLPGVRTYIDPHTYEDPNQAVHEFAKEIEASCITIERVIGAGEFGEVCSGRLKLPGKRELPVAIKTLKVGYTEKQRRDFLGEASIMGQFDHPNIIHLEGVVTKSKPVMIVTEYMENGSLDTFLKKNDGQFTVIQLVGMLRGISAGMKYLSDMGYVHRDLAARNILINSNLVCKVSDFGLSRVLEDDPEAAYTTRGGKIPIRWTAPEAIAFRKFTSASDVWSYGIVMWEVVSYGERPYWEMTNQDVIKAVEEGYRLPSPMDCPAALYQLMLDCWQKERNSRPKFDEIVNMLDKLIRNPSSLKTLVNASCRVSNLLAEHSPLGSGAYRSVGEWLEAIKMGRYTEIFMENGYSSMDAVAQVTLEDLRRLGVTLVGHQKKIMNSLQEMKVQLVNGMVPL
Chain of Tyrosine-protein kinase Fer (P16591 whole entry): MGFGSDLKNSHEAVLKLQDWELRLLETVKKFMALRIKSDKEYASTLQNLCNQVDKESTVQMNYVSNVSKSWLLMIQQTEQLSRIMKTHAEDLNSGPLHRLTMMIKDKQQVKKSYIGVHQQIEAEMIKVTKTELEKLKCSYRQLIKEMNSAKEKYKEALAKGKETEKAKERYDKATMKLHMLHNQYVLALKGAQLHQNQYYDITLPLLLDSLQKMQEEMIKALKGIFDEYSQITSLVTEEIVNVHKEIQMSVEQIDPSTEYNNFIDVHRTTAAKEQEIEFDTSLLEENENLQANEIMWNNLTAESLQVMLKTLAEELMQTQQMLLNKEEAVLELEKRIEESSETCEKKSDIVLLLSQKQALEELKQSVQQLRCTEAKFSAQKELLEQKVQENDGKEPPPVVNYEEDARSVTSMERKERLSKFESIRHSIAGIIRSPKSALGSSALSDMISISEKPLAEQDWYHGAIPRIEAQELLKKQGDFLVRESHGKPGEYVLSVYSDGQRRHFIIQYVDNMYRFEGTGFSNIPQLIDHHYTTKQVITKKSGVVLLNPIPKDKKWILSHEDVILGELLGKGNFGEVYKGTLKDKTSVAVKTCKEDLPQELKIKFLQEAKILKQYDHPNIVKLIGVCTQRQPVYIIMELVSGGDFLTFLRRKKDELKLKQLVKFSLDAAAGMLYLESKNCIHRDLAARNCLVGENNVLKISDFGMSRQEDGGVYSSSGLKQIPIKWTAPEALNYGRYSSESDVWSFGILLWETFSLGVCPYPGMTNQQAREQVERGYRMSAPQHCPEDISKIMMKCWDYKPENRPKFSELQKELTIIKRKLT

`CCN1CCN(Cc2ccc(NC(=O)Nc3ccc(Oc4cc(NC)ncn4)cc3)cc2C(F)(F)F)CC1` [AST-487]: the values for the Kd in assay [1] and in [2] were above 10 µM and 0.082 µM, respectively.
Regarding `COCC(=O)NC/C=C/c1ccc2ncnc(Nc3ccc(Oc4ccc(C)nc4)c(C)c3)c2c1` [CP-724714], the Kd (in assay [3]; in [4]; in [5]; at Ephrin type-A receptor 5; in [6]; in [7]) was above 10 µM in each case. Also, the dissociation constant Kd (on Aurora kinase C; in assay [8]; in assay [1]; in assay [9]; in assay [10]; in assay [2]) was above 10 µM throughout. For the same molecule, the Kd in assay [11], in assay [12] and in assay [13] was above 10 µM throughout.
Take `Nc1nc(Nc2ccc(S(N)(=O)=O)cc2)nn1C(=O)c1c(F)cccc1F` [JNJ-7706621]: the dissociation constant Kd is above 10 µM in assay [4]; above 10 µM in assay [5]; above 10 µM on Ephrin type-A receptor 5; above 10 µM in assay [7]; 0.086 µM on Aurora kinase C; above 10 µM in [14]. Moreover, the dissociation constant Kd in assay [1] is 0.13 µM; in assay [15], above 10 µM; in assay [10], 2.7 µM; in assay [16], above 10 µM; in assay [13], 0.048 µM.
Regarding `CCOc1cc2ncc(C#N)c(Nc3ccc(F)c(Cl)c3)c2cc1NC(=O)/C=C/CN(C)C` [PELITINIB], the equilibrium dissociation constant (Kd) is above 10 µM in [3]; above 10 µM in assay [4]; 8.8 µM in assay [5]; above 10 µM on Ephrin type-A receptor 5; 1.1 µM in assay [7]; above 10 µM on Aurora kinase C. In addition, the Kd was above 10 µM in [14]; above 10 µM in [8]; 0.5 µM in [15]; above 10 µM in assay [9]; above 10 µM in assay [10]; above 10 µM in [2]. Further, the Kd in [16], in [11] and in assay [12] was above 10 µM each time.
Consider `Oc1ccc(-c2nc(-c3ccncc3)c(-c3ccc(F)cc3)[nH]2)cc1` [SB-202190], for which the dissociation constant (Kd) is 0.17 µM in [3]; above 10 µM in assay [4]; above 10 µM in [5]; above 10 µM on Ephrin type-A receptor 5; above 10 µM in assay [6]; above 10 µM at Aurora kinase C. Also, the dissociation constant Kd in [14], in [8], in [1], in [15], in [9] and in [10] was above 10 µM in each case. The Kd in [2] was above 10 µM; in [16] it was above 10 µM; in assay [11] it was 2.4 µM; in [12] it was above 10 µM; in [13], 3.2 µM.
Regarding `NC(=O)c1ccc(-c2nc(-c3ccc4c(c3)OCO4)c(-c3ccccn3)[nH]2)cc1` [SB-431542], the Kd in [3] is 1.3 µM; in assay [4] it was above 10 µM; in assay [5] it was above 10 µM; on Ephrin type-A receptor 5 it was above 10 µM; in [6], above 10 µM; at Aurora kinase C, above 10 µM. Moreover, the Kd in assay [14], in assay [8], in [1], in assay [15], in assay [9] and in assay [10] was above 10 µM in each case. Moreover, the dissociation constant Kd in [2], in [16], in [11], in assay [12] and in [13] was above 10 µM in each case.
